The target in this assay is recombinant wildtype and mutated PPO (Amaranthus PPO2: PPX2L_WC SEQ ID NO 2, PPX2L_AC SEQ ID NO 4, dG210 SEQ ID NO 6 & 8) (Amaranthus tuberculatus, UniProt Q0NZW9, R128A/F420V, form not given). As to the kind of experiment: biochemical.

This is an account of results in patent US11866720B2, “Transgenic or non-transgenic plants with mutated protoporphyrinogen oxidase having increased tolerance to herbicides” (priority 2013, dated 2024).

recombinant wildtype and mutated PPO (Amaranthus PPO2: PPX2L_WC SEQ ID NO 2, PPX2L_AC SEQ ID NO 4, dG210 SEQ ID NO 6 & 8), sequence (Q0NZW9 1-534 R128A/F420V, form open): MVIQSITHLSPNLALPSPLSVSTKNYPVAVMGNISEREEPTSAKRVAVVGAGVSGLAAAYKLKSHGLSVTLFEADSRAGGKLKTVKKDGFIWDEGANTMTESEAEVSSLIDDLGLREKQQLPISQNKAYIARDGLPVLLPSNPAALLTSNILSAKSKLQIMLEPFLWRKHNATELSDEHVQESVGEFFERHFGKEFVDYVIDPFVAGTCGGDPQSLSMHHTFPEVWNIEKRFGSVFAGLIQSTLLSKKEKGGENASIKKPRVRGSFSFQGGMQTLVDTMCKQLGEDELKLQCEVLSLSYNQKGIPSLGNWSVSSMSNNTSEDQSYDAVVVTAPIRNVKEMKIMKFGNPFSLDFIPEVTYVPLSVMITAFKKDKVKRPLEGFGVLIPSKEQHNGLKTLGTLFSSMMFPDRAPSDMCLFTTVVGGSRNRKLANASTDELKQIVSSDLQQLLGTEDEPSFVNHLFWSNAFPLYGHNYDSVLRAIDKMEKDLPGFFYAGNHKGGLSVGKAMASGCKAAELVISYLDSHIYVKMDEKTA

One may read the IC50 as the midpoint of a concentration-inhibition curve. `C#CCN1C(=O)C(F)(F)Oc2cc(F)c(N3C(=O)C4=C(CCCC4)C3=O)cc21`: the IC50 came to 0.274 µM.

For `C#CCN1C(=O)C(F)(F)Oc2cc(F)c(-n3c(=O)cc(C(F)(F)F)n(C)c3=O)cc21`, the concentration for half-maximal inhibition (IC50) turned out to be 0.00633 µM.
